System: IUGR rats
Assay: Insulin content of pancreas of IUGR rats at postnatal day 57 after HMO supplementation (ELISA)
Type: in vivo, Sprague-Dawley rats
Settings: gavage 3 g/kg body weight d7 to d21, then diet with 4.5 wt% HMO d22 to d57, sacrifice at day 57 after 6-hr fasting, compared with control IUGR rats (about 50 μg insulin per g pancreatic tissue), FIG. 1, *P<0.05
Source text: Three groups of time-mated pregnant Sprague-Dawley female rats were bought from Charles River laboratories. One group was submitted to food restriction of 60% during the last 10 days of gestation and their offspring were cross-fostered to normally fed rats. A second group of pregnant females was normally fed and their offspring cross-fostered among the same group of dams. Immediately after birth ([…]), the born rat pups-subjects of the experiment-were assigned to one of the following groups: • IUGR group (negative control; n=20): IUGR rats being fed a normal diet after birth; • IUGR rats+HMO (test groups): During the experiment, they were reared by their mothers for 21 days and supplemented with HMOs (2-FL, LNnT or the Mix of 2-FL and LNnT). At weaning, they were fed a diet supplemented with the same HMOs, see details below. […] All rat pups were fed from birth (d=1) up to 57 days (d=57) based on the following protocol: • d1 to d6: all groups of rats were nursed by dam (mothers' milk only); • d7 to d21: all rats were nursed by dam (mothers' milk only). […] Rats were sacrificed at day 57 (postnatal day 57=p57) after a 6-hr fasting period and pancreas was dissected and its insulin content was extracted using a solution acid-ethanol and quantified using an Ultra Sensitive Insulin ELISA kit ([…]., Downer Grove, Ill., USA) with and inter assay CV of 4.0%.

## 2′-fucosyllactose [2FL]
  insulin content of the rat's pancreas (amount of insulin per gram of pancreatic tissue): significantly higher value of insulin

## CC(=O)N[C@H]1[C@H](O[C@H]2[C@@H](O)[C@@H](CO)O[C@@H](O[C@H]3[C@H](O)[C@@H](O)C(O)O[C@@H]3CO)[C@@H]2O)O[C@H](CO)[C@@H](O[C@@H]2O[C@H](CO)[C@H](O)[C@H](O)[C@H]2O)[C@@H]1O (mixture of isomers) [LNnT, lacto-N-neotetraose]
  insulin content of the rat's pancreas (amount of insulin per gram of pancreatic tissue): about the same level of insulin
